± gives the expanded uncertainty stated by the source.
Tests used:
[1] = Liquid; Calvet microcalorimetry
[2] = molar enthalpy of vaporization or sublimation; conditions: 298.15 K; Liquid; Calvet microcalorimetry

Normal boiling temperature [1] [°C] | molar enthalpy [2] [kJ/mol] | SMILES
103 ± 0.2 | 56 ± 2.4 | O=C1C=CCS1 [2(5H)-thiophenone]
– | 55.6 ± 2.6 | O=C1C=CCO1 [(5H)-furan-2-one]
